Results taken from ChEMBL document CHEMBL1156122, “Protein tyrosine phosphatase 1B inhibitors isolated from Morus bombycis” (Bioorg Med Chem Lett, 2009).

Biological target: T1, Tyrosine-protein phosphatase non-receptor type 1 (Homo sapiens, UniProt P18031)
T1 sequence (P18031 whole entry): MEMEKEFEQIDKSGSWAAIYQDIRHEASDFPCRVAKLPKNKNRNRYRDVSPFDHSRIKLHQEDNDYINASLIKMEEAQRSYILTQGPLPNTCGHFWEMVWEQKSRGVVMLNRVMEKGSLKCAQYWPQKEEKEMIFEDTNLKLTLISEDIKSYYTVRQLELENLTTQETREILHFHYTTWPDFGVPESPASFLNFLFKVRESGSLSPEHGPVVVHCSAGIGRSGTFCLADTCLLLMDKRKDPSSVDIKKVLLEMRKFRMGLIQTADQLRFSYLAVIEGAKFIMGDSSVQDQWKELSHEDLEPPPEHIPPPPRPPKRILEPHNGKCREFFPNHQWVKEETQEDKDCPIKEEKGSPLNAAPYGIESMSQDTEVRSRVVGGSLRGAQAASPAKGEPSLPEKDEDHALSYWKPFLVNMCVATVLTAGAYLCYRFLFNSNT
Experiment: Inhibition of human recombinant PTP1B

IC50 [µM] | Compound
9.2 | CC(C)=CCC/C(C)=C/Cc1c(O)cc(O)cc1-c1cc2ccc(O)cc2o1 [ALBAFURAN A]
2.7 | CC(C)=CCC/C(C)=C\CC/C(C)=C\Cc1c(O)cc(O)cc1-c1cc2ccc(O)cc2o1 [MULBERROFURAN W]

Second part, the molecule before the results:

Compound | IC50 [µM]
CC(C)=CCc1c(O)cc(C(=O)[C@H]2[C@@H](c3c(O)ccc(C(=O)/C=C/c4ccc(O)cc4)c3O)C=C(C)C[C@@H]2c2ccc(O)cc2O)cc1O [KUWANON R] | 8.2
CC(C)=CCc1c(O)cc(C(=O)[C@H]2[C@@H](c3c(O)ccc(C(=O)/C=C/c4ccc(O)cc4)c3O)C=C(C)C[C@@H]2c2ccc(O)cc2)cc1O [KUWANON V] | 13.8
CC(C)=CCc1c(O)cc(C(=O)[C@H]2[C@@H](c3c(O)ccc(C(=O)/C=C/c4ccc(O)cc4O)c3O)C=C(C)C[C@@H]2c2ccc(O)cc2O)cc1O [KUWANON J] | 2.7
CC(C)=CCC/C(C)=C/Cc1c(O)ccc2cc(-c3cc(O)cc(O)c3CC=C(C)C)oc12 [MULBERROFURAN D] | 4.3
